{"source": "paper PMC10292217", "about": "“Gene-nutrient interactions that impact magnesium homeostasis increase risk for neural tube defects in mice exposed to dolutegravir” (Frontiers in Cell and Developmental Biology, 2023)", "key": {"[1]": {"experiment": "Plasma DTG pharmacokinetics (LC-MS/MS, NCA) in LM/Bc mice", "type": "in vivo, mouse", "conditions": "for Tmax / half-life / Cmax / AUC(0-t): female, mouse, plasma; for half-life: read-out: t½ (converted); for Cmax / AUC(0-t): high Mg2+ soy diet; for AUC(0-t): read-out: AUC 0-24", "experimental": "Baseline blood samples were collected via cheek bleed (submandibular vein) from all animals prior to timed matings, and again on GD 9.5. A Goldenrod sterile lancet (MEDIpoint, Inc., Mineola, NY) was used to lance the submandibular vein, and 3-4 drops (∼100 µL) of blood was collected into a Microvette CB 300 Lithium Heparin plasma separator tube (SARSTEDT AG and Co., Germany) and then centrifuged at 2000 g for 8 min. Plasma samples were frozen at −80 °C for LCMS analysis of DTG or ICP-MS determination of cations. DTG detection and quantification was performed at Creighton University using a previously published method ([Bennetto-Hood et al., 2014]) with minor modifications. Briefly, a seven-point calibration curve ranging from 0.1 to 100 μg/mL was challenged with quality control vials at known concentrations of 5, 20, and 80 μg/mL. All controls and calibrators with known drug concentrations were added to DTG-free mouse plasma. To initiate protein precipitation, 120 µL of acetonitrile containing 10 ng/mL of d5- DTG internal standard (Cayman Chemical, Ann Arbor, MI) was added to 20 µL mouse plasma (calibrators, controls, unknown samples), and mixed for 2 min on an orbital shaker (1500 rpm), followed by centrifugation at 2,655 g for 5 min. […] LC-MSMS separation was achieved using Agilent 1200 liquid chromatography devices and an AB Sciex 3200 Q-Trap mass spectrometer. The mobile phase consisted of an isocratic gradient of 0.1% formic acid in water:0.1% formic acid in acetonitrile (60:40) with a flow rate of 0.475 mL/min across an XBridge C18 column (Waters, Milford, MA, United States). […] Strains and treatments were compared by 2-way ANOVA followed by post hoc analyses. Pairwise comparisons of the proportion of affected embryos in each litter between strains and treatments were evaluated by the Fisher least significant difference method. Index value pairwise comparisons were evaluated using the Kruskal–Wallis nonparametric test in Sigma XL (v9.0). Comparisons of cation levels in urine and plasma between strains and between diets as well as the effect of DTG on the incidence of NTDs in LM/Bc dams was performed by one-way ANOVA followed by Dunnett’s multiple comparisons test using GraphPad Prism version 9.5.0 for Windows. The level of significance p < 0.05 was used for all analyses. DTG pharmacokinetics were evaluated by noncompartmental analysis (NCA) using PKsolver ([Zhang et al., 2010])."}, "[2]": {"conditions": "ref Zash et al., cited from earlier work"}, "[3]": {"conditions": "750 mg/kg/day, pregnant LM/Bc mice, 10 daily oral doses DTG750"}, "[4]": {"conditions": "750 mg/kg/day, pregnant LM/Bc mice, 10 daily oral doses DTG750 GD 0.5-GD 9.5"}, "[5]": {"conditions": "750 mg/kg, non-pregnant LM/Bc mice, single oral dose DTG750"}, "[6]": {"conditions": "non-pregnant LM/Bc mice, single oral dose DTG 750 mg/kg"}, "[7]": {"conditions": "non-pregnant mouse single dose DTG750 vs human 50 mg single dose"}, "[8]": {"conditions": "non-pregnant mouse single dose DTG750 vs human 100 mg single dose"}, "[9]": {"conditions": "non-pregnant mouse single dose DTG750 vs human 100 mg × 7d"}, "[10]": {"conditions": "pregnant mouse 10 daily doses DTG750 vs pregnant women 2nd trimester 50 mg/d"}}, "note": "Read-outs that look alike come from different tables or passages of the source.", "data": [{"compound": "C[C@@H]1CCO[C@H]2Cn3cc(C(=O)NCc4ccc(F)cc4F)c(=O)c(O)c3C(=O)N12", "note": "[DTG, Dolutegravir]", "values": [{"measurement": "Tmax", "setting": "[1]; [3]", "value": 2, "unit": "h"}, {"measurement": "half-life", "setting": "[1]; [3]", "value": 4.4, "unit": "h"}, {"measurement": "Cmax", "setting": "[1]; [4]", "value": 128, "unit": "µg/mL"}, {"measurement": "AUC(0-t)", "setting": "[1]; [4]", "value": 847, "unit": "µg·h/mL"}, {"measurement": "Tmax", "setting": "[1]; [5]", "value": 2, "unit": "h"}, {"measurement": "half-life", "setting": "[1]; [5]", "value": 6.3, "unit": "h"}, {"measurement": "Cmax", "setting": "[1]; [6]", "value": 133, "unit": "µg/mL"}, {"measurement": "AUC(0-t)", "setting": "[1]; [6]", "value": 1300, "unit": "µg·h/mL"}, {"measurement": "AUC 0-24, mouse multiplication factor vs human", "setting": "[1]; [7]", "value": 18.4, "unit": "x"}, {"measurement": "Cmax, mouse multiplication factor vs human", "setting": "[1]; [7]", "value": 28.9, "unit": "x"}, {"measurement": "AUC 0-24, mouse multiplication factor vs human", "setting": "[1]; [8]", "value": 9.9, "unit": "x"}, {"measurement": "Cmax, mouse multiplication factor vs human", "setting": "[1]; [8]", "value": 16.4, "unit": "x"}, {"measurement": "AUC 0-24, mouse multiplication factor vs human", "setting": "[1]; [9]", "value": 14.1, "unit": "x"}, {"measurement": "Cmax, mouse multiplication factor vs human", "setting": "[1]; [9]", "value": 19.8, "unit": "x"}, {"measurement": "AUC 0-24, mouse multiplication factor vs human", "setting": "[1]; [10]", "value": 17.8, "unit": "x"}, {"measurement": "Cmax, mouse multiplication factor vs human", "setting": "[1]; [10]", "value": 35.3, "unit": "x"}, {"measurement": "NTD prevalence", "setting": "[2]; 4/426 infants exposed to DTG from conception, 2018", "value": ".94%"}, {"measurement": "prevalence of DTG-NTDs", "setting": "[2]; follow-up study, 5/1683 deliveries, 2019", "value": ".30%"}, {"measurement": "increase in the prevalence of NTDs", "setting": "[2]; women who began DTG prior to conception, 2018", "value": 9, "unit": "fold"}]}]}
